The target of assay [1] is T1, PI5P4Kα (Homo sapiens, UniProt P48426).
T1 construct: made in house
T1 sequence (P48426 1-406): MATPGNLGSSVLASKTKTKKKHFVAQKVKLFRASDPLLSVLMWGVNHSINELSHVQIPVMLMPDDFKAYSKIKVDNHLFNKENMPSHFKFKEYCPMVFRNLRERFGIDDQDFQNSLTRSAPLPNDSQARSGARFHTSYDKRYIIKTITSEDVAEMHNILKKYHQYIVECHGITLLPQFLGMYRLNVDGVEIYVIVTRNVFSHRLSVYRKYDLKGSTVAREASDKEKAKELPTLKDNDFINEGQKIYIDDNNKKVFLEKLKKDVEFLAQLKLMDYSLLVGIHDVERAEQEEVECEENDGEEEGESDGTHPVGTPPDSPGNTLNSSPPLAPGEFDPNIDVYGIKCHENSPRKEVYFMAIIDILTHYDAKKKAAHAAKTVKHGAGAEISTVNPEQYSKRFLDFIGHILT
In words: Miniaturized 1536-well luciferase-coupled bioluminescence (ADP-Glo) PI5P4Kα enzyme activity assay. The format is biochemical. To be noted: for inhibitory activity against PI5P4Kα (in words): miniaturized assay / LOPAC1280 screen. The method, then:
PI5P4Kα (52.4 µL) was added to the lipid reagent (3 mL, described above) to form the enzyme-lipid mixture. First, 2 µL of the enzyme/lipid substrate reagent (2 µg/mL PI5P4Kα final concentration) were dispensed into a white solid-bottom 1536-well plate in columns 1–2, […] using a Flying Reagent Dispenser (FRD, Beckman Coulter, Fullerton, CA, USA). Into columns 3 and 4, 2 µL of a no-lipid and no-enzyme control were dispensed, respectively, where the lipid was replaced by DMSO or the enzyme was replaced by buffer (20 mM Hepes 7.4, 0.1% CHAPS) in the enzyme-lipid mixture. Then, 23 nL of the library compounds and control compounds were transferred by a 1536 pintool (Kalypsys Systems, San Diego, CA, USA) into wells 5–48 and 1–4, respectively. To initiate the reaction, 1 µL of the ATP solution (20 mM Hepes pH 7.4, 60 mM MgCl2, 0.015 mM ATP and 0.1% CHAPS) was added. The final concentration of DMSO in the reaction was 5%. The resulting mixture was incubated at room temperature in the dark for one hour, at which time 2 µL of ADP-Glo reagent 1 were added to stop the reaction and remove any remaining ATP. After a 45-minute incubation, 4 µL of the ADP-Glo reagent 2 were added and allowed to incubate for 30 minutes. The luminescence was then read with a ViewLux high-throughput CCD imager (Perkin Elmer, Waltham, MA, USA). A total of six plates were assayed: one DMSO plate for monitoring the background trends and five concentrations of the LOPAC library (152, 76, 15, 3 and 0.6 µM final assay concentrations, respectively). The top concentration in the assay was attained by two sequential pin transfers of the top concentration of the compound library.
Screening data were corrected and normalized, and concentration-response curves were derived using in-house algorithms. Overall assay performance, including trends in Z’ factor, % CV, and S/B, were recorded. Percent activity was computed after normalization using the median values of the uninhibited enzyme control (32 wells in column 1) and the no-enzyme, or 100% inhibited, control (32 wells, column 4). Additionally, the compound structures were evaluated, and the long chain compounds such as the C18 containing compounds from LOPAC^1280 that are likely to act by disrupting the lipid vesicles were eliminated. Selected actives were procured for re-testing in the primary screening assay and for use in the counter assays and substrate competition assay.
For orientation: In ADP-Glo the light output rises with the ADP produced.

The target of the next assay is T2, GST-PI5P4Kα (Homo sapiens, UniProt P48426).
T2 construct: made in house
T2 sequence (P48426 1-406): T1 sequence (P48426 1-406)
In words: γ-32P-ATP incorporation assay and TLC (radiometric PI5P4K assay). The format is biochemical. The method, then: The PI5P4K assay was carried out as described in [10], [22], [23]. Briefly, the kinase reaction was carried out in a total of 50 µL of kinase buffer containing 20 µL of the resuspended lipids, 50 mM HEPES pH 7.4, 10 mM MgCl2, 10 µM non-radiolabeled ATP, 10 µCi [γ-^32P]-ATP with 0.1 µg of GST-PI5P4Kα for 7 minutes at room temperature. The reaction was terminated by adding 20 µL of 4 N HCl. Phosphoinositides were extracted by adding 70 µL of methanol/chloroform (1∶1, vol:vol) mix and subjected to TLC (thin-layer chromatography) separation using heat-activated 2% […] silica gel 60 plates (20 cm×20 cm, EMD Chemicals Inc., Billerica, MA, USA) and a 1-propanol/2 M acetic acid (65∶35, vol:vol) solvent system. The radiolabeled product, PI(4,5)P2, was quantified with a Phosphorimager (Molecular Dynamics, STORM840, GE Healthcare, Waukesha, WI, USA).

In assay [2] the target is T1, PI5P4Kα. In words: Substrate (ATP) competition assay, miniaturized ADP-Glo PI5P4Kα assay. Format: biochemical. To be noted: for mode of inhibition with respect to ATP: IC50 vs [ATP]/Km, seven ATP concentrations; for dependence of potency on ATP: varied ATP concentration. An excerpt: The experiment was otherwise conducted as described above for the miniaturized ADP-Glo enzyme assay.

The target of assay [3] is T1, PI5P4Kα. In words: Miniaturized 1536-well luciferase-coupled bioluminescence (ADP-Glo) PI5P4Kα enzyme activity assay. Format: biochemical. To be noted: freshly plated stock of reacquired compound, 11-point titration.
In the next assay the test system is IGF1R. Set-up: method as in PMID 11123895. To be noted: cited from earlier work.
The target in assay [4] is insulin-like growth factor 1 receptor (IGF1R). Set-up: method as in PMID 11123895. To be noted: cited from earlier work.
The mark [5] stands for this setting: LOPAC1280 qHTS pilot screen, 5 µM ATP, 75 µM PI5P, 5% DMSO.

“And” between values parts separate entries of the source, which are not always exact repeats. Equal values may be shown once. “Also recorded” adds a separate entry of the source.

As for `CCCCCCCCCCCCCCCCCCOC[C@H](COP(=O)(O)OCC[N+](C)(C)C)OC` [1-O-Octadecyl-2-O-methyl-sn-glycero-3-phosphorylcholine], on PI5P4Kα [1], the “inhibitory activity against PI5P4Kα (in words)” value is on record as “identified as inhibitors”.
For `CC(C)(C)c1cc(C=C(C#N)C#N)cc(C(C)(C)C)c1O` [AG17], at GST-PI5P4Kα (tested at 100 µM), the “inhibition of PI5P4Kα (in words)” value is listed as “not to significantly inhibit”.
Still for that read-out and setting: to `N#CC(C#N)=Cc1ccc(O)c(O)c1` [AG18] belongs “not to significantly inhibit”.
Regarding `COc1cc(/C=C(\C#N)C(=O)c2ccc(O)c(O)c2)cc(I)c1O` [I-OMe-AG-538], the IC50 was 2.5 µM and 2 µM against PI5P4Kα [1] (setting [5]); 1 µM at PI5P4Kα [3]. For the same compound, the “mode of inhibition with respect to ATP” value on PI5P4Kα [2] was “competitive inhibition; also recorded: competitive with respect to ATP”; on PI5P4Kα [2] (listed as I-OMe tyrphostin AG-538), “ATP-competitive inhibitor”. The compound also displayed a Ki on PI5P4Kα [2] (seven ATP concentrations 0.25xKm to 10xKm, Km of ATP 5 µM) of 0.5 µM. In the assay on IGF1R, the “inhibition of IGF1R in a cell assay (in words)” value is “inhibited IGF1R in a similar dose-dependent manner”.
Take `COc1c(C)c2c(c(O)c1C/C=C(\C)CCC(=O)O)C(=O)OC2` [MP, mycophenolate]: the “inhibition of PI5P4Kα (in words)” value against GST-PI5P4Kα (tested at 100 µM) is on record as “not to significantly inhibit”.
In the case of `CCCCCCCC/C=C\CCCCCCCC(=O)N[C@@H](CO)Cc1ccc(O)cc1` [OMDM-2, (R)-N-oleoyl Tyrosinol], the concentration for half-maximal inhibition (IC50) against PI5P4Kα [1] (weak inhibitors, ADP-Glo assay) was ~30 µM. The “dependence of potency on ATP” value at PI5P4Kα [2] is listed as “did not vary with ATP”.
With `CC(C)[C@H](CO)Nc1nc(Nc2ccc(C(=O)O)c(Cl)c2)c2ncn(C(C)C)c2n1` [PVB, purvalanol B], the “inhibition of PI5P4Kα (in words)” value on GST-PI5P4Kα (tested at 10 µM due to solubility limitations) is reported as “not to significantly inhibit”.
For `Cc1[nH]c(/C=C2\C(=O)Nc3ccccc32)c(C)c1CCC(=O)O` [SU6668], the “inhibition of PI5P4Kα (in words)” value against GST-PI5P4Kα (tested at 100 µM) is “not to significantly inhibit”.
Take `N#CC(C#N)=Cc1cc(O)c(O)c(O)c1` [Tyrphostin AG-82]: 93 µM corresponded to half-maximal inhibition at PI5P4Kα [1] (setting [5]) (IC50). In addition, the “inhibitory activity against PI5P4Kα (in words)” value against PI5P4Kα [1] is on record as “confirmed”. At GST-PI5P4Kα (tested at 100 µM), this compound showed an inhibition at 100 µM of 75%.
For `CCCCCCCC/C=C\CCCCCCCC(N)=O` [oleamide], on PI5P4Kα [1] (weak inhibitors, ADP-Glo assay), the IC50 is ~30 µM. Also, the “dependence of potency on ATP” value on PI5P4Kα [2] is given as “did not vary with ATP”.
Compound `N#CC(C#N)=Cc1ccc(O)c(O)c1` [tyrphostin 23] came in with a concentration for half-maximal inhibition (IC50) on PI5P4Kα [1] (setting [5]) of 45 µM.
Same read-out and setting: to `N#C/C(=C\c1ccc(O)c(O)c1)C(N)=S` [tyrphostin 47] belongs 20 µM; to `N#CC(C#N)=C(N)/C(C#N)=C/c1cc(O)c(O)c(O)c1` [tyrphostin 51], 5 µM; to `N#C/C(=C\c1ccc(O)c(O)c1)C(=O)NCc1ccccc1` [tyrphostin AG 490], 89 µM.
`N#C/C(=C\c1ccc(O)c(O)c1)C(=O)Nc1ccccc1` [tyrphostin AG 494] yielded an IC50 on PI5P4Kα [1] (setting [5]) of 89 µM.
Take `N#C/C(=C\c1ccc(O)c(O)c1)C(=O)NCCCNC(=O)/C(C#N)=C/c1ccc(O)c(O)c1` [tyrphostin AG 537]: half-maximal inhibition against PI5P4Kα [1] (setting [5]) (IC50) required 32 µM.
For `N#C/C(=C\c1ccc(O)c(O)c1)C(=O)c1ccc(O)c(O)c1` [tyrphostin AG 538], the figures for the IC50 (on PI5P4Kα [1] (setting [5]); in assay [4]) were 14 µM and 0.06 µM, respectively. Moreover, in the assay with IGF1R, the “inhibition of IGF1R in a cell assay (in words)” value is “inhibited IGF1R in a similar dose-dependent manner”.
Turning to `N#C/C(=C\c1ccc(O)c(O)c1)C(=O)NCCCc1ccccc1` [tyrphostin AG 555], the half-inhibitory concentration (IC50) against PI5P4Kα [1] (setting [5]) worked out at 50 µM.
Regarding `N#C/C(=C\c1c[nH]c2ccccc12)C(=O)c1ccc(O)c(O)c1` [tyrphostin AG 808], at PI5P4Kα [1] (setting [5]), the concentration for half-maximal inhibition (IC50) stood at 18 µM.
Regarding `COc1cc2ncnc(Nc3cccc(Cl)c3)c2cc1OC` [tyrphostin AG 1478], the midpoint of inhibition on PI5P4Kα [1] (setting [5]), the IC50, lay at 100 µM.

For orientation: IC50 means the midpoint of a concentration-inhibition curve. The Ki is a measure of affinity in units of concentration, obtained from inhibition or displacement. As a reminder, the inhibition is how much of the control response was suppressed. Low readings indicate little suppression, high ones strong suppression.

Source of the values: paper PMC3542272, “A Homogeneous, High-Throughput Assay for Phosphatidylinositol 5-Phosphate 4-Kinase with a Novel, Rapid Substrate Preparation” (PLoS ONE, 2013).
